Results: article PMC6856409 (Journal of medicinal chemistry, 2019)

How the values were obtained:
[1] = system: NLRC4 inflammasome; assay: NLRC4 inflammasome selectivity assay, J774A.1 cells, LPS/flagellin, IL-1β ELISA; assay type: cell-based, murine; details: 10 μM compound, LPS (1 μg/mL) 1 h, flagellin (1 μg/mL) 6 h
[2] = system: AIM2 inflammasome; assay: AIM2 inflammasome selectivity assay, J774A.1 cells, LPS/poly; assay type: cell-based, murine; details: 10 μM compound, LPS (1 μg/mL) 1 h, poly(dA:dT) (4 μg/ml) 8 h
[3] = system: hCMEC/D3 cells; assay: Cytotoxicity on hCMEC/D3 cells; details: 20 μM, 2 h
[4] = system: NLRP3 inflammasome; assay: IL-1β release from mouse peritoneal macrophages upon LPS/ATP challenge; assay type: cell-based

For C#CCNS(=O)(=O)c1ccc(CCN(Cc2cc(Cl)ccc2OCCC)C(=O)Cc2ccsc2)cc1 [Compound 17, N-(5-chloro-2-propoxybenzyl)-N-(4-(N-(prop-2-yn-1-yl)sulfamoyl)phenethyl)-2-(thio-phen-3-yl)acetamide], the “effect on IL-1β production by NLRC4 inflammasome” value [1] was “did not significantly interfere”, the “effect on IL-1β production by AIM2 inflammasome” value [2] was “did not significantly interfere” and the “cytotoxicity (cell viability)” value [3] was “did not show significant toxic effects”.
With C#CCNS(=O)(=O)c1ccc(CCN(Cc2cc(Cl)ccc2OC)C(=O)C=C)cc1 [Compound 2, N-(5-chloro-2-methoxybenzyl)-N-(4-(N-(prop-2-yn-1-yl)sulfamoyl)phenethyl)acryl-amide] the “effect on IL-1β production by NLRC4 inflammasome” value [1] was “significantly inhibited”, the “inhibitory activity on IL-1β release” value [4] was “confirmed” and the “effect on IL-1β production by AIM2 inflammasome” value [2] was “significantly inhibited”.
